# Laboratory results from patent US5219884A, “Immunosuppressant” (Taito Co., Ltd., priority 1990, dated 1993).
# Key:
# [1] = test system: interleukin 2 receptor (IL-2R, Tac) expression in mouse allogenic MLC; test: suppression of induction of IL-2R (Tac) expression in mouse allogenic MLC; format: cell-based
# Experimental: (§1) Mouse allogenic MLC and PHA-stimulated mouse spleen cells were prepared in the same as in Experimental Example 3.
# (§2) The IL-2R (Tac) induced in mouse allogenic MLC and PHA-stimulated mouse spleen cells was assayed as follows:
# (§3) After culturing the mouse allogenic MLC and the PHA-stimulated mouse spleen cells at 37° C. in an atmosphere of 5% carbon dioxide for 24 hours, the cells were collected by centrifugation (1000 rpm, 5 minutes, 4° C.), and about 10^6 cells were cultured in 10 μl of phosphate buffered saline (PBS), to which 0.02% sodium azide-containing rat anti-mouse IL-2R monoclonal antibody (manufactured by Boehringer Co., 40 μg/ml) had been added, for 30 minutes with ice-cooling. After washing three times with ice-cooled PBS containing 0.02% sodium azide, 50 μl of fluorescein isothiocyanate (FITC)-labeled goat anti-rat immunoglobulin G antibody was added and cultured for 30 minutes with ice-cooling. To the cell pellet after washing three times with ice-cooled 0.02% sodium azide-added PBS was added, a few drops of PBS containing 0.2% sodium azide and 50% glycerin. Prepared specimens on non-fluorescent slide glasses were made and the IL-2R positive cells were counted under a fluorescent microscope to determine the ratio of numbers of IL-2R positive cells in the total numbers of the cells.
# [2] = test system: interleukin 2 receptor (IL-2R, Tac) expression in PHA-stimulated mouse spleen cells; test: suppression of induction of IL-2R (Tac) expression in PHA-stimulated mouse spleen cells; format: cell-based
# Experimental: as §1, §2, §3
smiles,measurement,setting,value
CCCCCCC(=O)CCCCCC/C=C/CC(O)C(O)C(N)(CO)C(=O)O (centres unmarked) [Example 1],IL-2R positive cells,[1]; 0.001 μg/ml,22.4%
same,IL-2R positive cells,[1]; 0.01 μg/ml,17.6%
same,IL-2R positive cells,[1]; 0.1 μg/ml,13.1%
same,IL-2R positive cells,[1]; 1 μg/ml,11.4%
same,inhibition at 0.001 µg/mL,"[1]; Mus musculus, 24 h, 0.001 μg/ml",8.2%
same,inhibition at 0.01 µg/mL,"[1]; Mus musculus, 24 h, 0.01 μg/ml",27.9%
same,inhibition at 0.1 µg/mL,"[1]; Mus musculus, 24 h, 0.1 μg/ml",44.3%
same,inhibition at 1 µg/mL,"[1]; Mus musculus, 24 h, 1 μg/ml",53.3%
same,IL-2R positive cells,[2]; 0.1 μg/ml,36.6%
same,IL-2R positive cells,[2]; 1 μg/ml,26.6%
same,IL-2R positive cells,[2]; 10 μg/ml,13.4%
same,inhibition at 0.1 µg/mL,"[2]; Mus musculus, 24 h, 0.1 μg/ml",20.8%
same,inhibition at 1 µg/mL,"[2]; Mus musculus, 24 h, 1 μg/ml",42.4%
same,inhibition at 10 µg/mL,"[2]; Mus musculus, 24 h, 10 μg/ml",71%
